From ChEMBL document CHEMBL2073852, “Transport of fluorescein methotrexate by multidrug resistance-associated protein 3 in IEC-6 cells” (Am J Physiol Gastrointest Liver Physiol, 2003)
Blank lines part the entries; values can stand above or below the molecule they belong to.

Experiments:
Assay type in all cases: functional, cell membranes, Membrane vesicle
[1] = target: ATP-binding cassette sub-family C member 3 (Rattus norvegicus, UniProt O88563); test: TP_TRANSPORTER: inhibition of F-MTX uptake (F-MTX: 5.0 uM, E217betaG: 75.0 uM) in membrane vesicles from IEC-6 cells; parameters: scale not given: the % may be the effect or the level left; conditions: iec-6, 75 µM
[2] = target: T1, Mrp3 (ATP-binding cassette sub-family C member 3, ABCC3) (Rattus norvegicus, UniProt O88563); test: TP_TRANSPORTER: inhibition of F-MTX uptake (F-MTX: 5.0 uM, E217betaG: 75.0 uM) in membrane vesicles from Mrp3-Sf9 cells; parameters: scale not given: the % may be the effect or the level left; conditions: membrane vesicles from Mrp3-expressing Sf9 cells, probe F-MTX; read-out: Activity
[3] = target: T1, Mrp3 (ATP-binding cassette sub-family C member 3, ABCC3); test: TP_TRANSPORTER: inhibition of F-MTX uptake (F-MTX: 5.0 uM, MK-571: 100.0 uM) in membrane vesicles from IEC-6 cells; parameters: scale not given: the % may be the effect or the level left; conditions: probe F-MTX, read-out: Activity
[4] = target: T1, Mrp3 (ATP-binding cassette sub-family C member 3, ABCC3); test: TP_TRANSPORTER: inhibition of F-MTX uptake (F-MTX: 5.0 uM, MK-571: 100.0 uM) in membrane vesicles from Mrp3-Sf9 cells; parameters: scale not given: the % may be the effect or the level left; conditions: membrane vesicles from Mrp3-expressing Sf9 cells, probe F-MTX; read-out: Activity
[5] = substrate: CN(Cc1cnc2nc(N)nc(N)c2n1)c1ccc(C(=O)N[C@@H](CCC(=O)O)C(=O)O)cc1; test: TP_TRANSPORTER: uptake in membrane vesicles from Mrp3-Sf9 cells
[6] = substrate: CN(Cc1cnc2nc(N)nc(N)c2n1)c1ccc(C(=O)N[C@@H](CCC(=O)O)C(=O)O)cc1; test: TP_TRANSPORTER: uptake in membrane vesicles from IEC-6 cells

Molecule: C[C@]12CC[C@@H]3c4ccc(O)cc4CC[C@H]3[C@@H]1CC[C@@H]2O[C@@H]1O[C@H](C(=O)O)[C@@H](O)[C@H](O)[C@H]1O [ESTRADIOL 17B GLUCURONIDE]
Activity [1]: 41.7%
activity at 75 µM [2]: 19.2%

activity at 100 µM [3]: 9.5%
activity at 100 µM [4]: 4.9%
Molecule: CN(C)C(=O)CCSC(SCCC(=O)O)c1cccc(/C=C/c2ccc3ccc(Cl)cc3n2)c1 (stereo unspecified) [MK-571]

B1: ATP-binding cassette sub-family C member 3 (Rattus norvegicus) (protein)
chain: MDRLCGSGELGSKFWDSNLTVYTNTPDLTPCFQNSLLAWVPCIYLWAALPCYLFYLRHHRLGYIVLSCLSRLKTALGVLLWCISWVDLFYSFHGLVHGSSPAPVFFITPLLVGITMLLATLLIQYERLRGVRSSGVLIIFWLLCVICAIIPFRSKILLALAEGKILDPFRFTTFYIYFALVLCAFILSCFQEKPPLFSPENLDTNPCPEASAGFFSRLSFWWFTKLAILGYRRPLEDSDLWSLSEEDCSHKVVQRLLEAWQKQQTQASGPQTAALEPKIAGEDEVLLKARPKTKKPSFLRALVRTFTSSLLMGACFKLIQDLSPSSTHSCSASSSGLFRPHGPYWWGFLLAGLMFVSSTMQTLILHQHYHCIFVMALRIRTAIIGVIYRKALTITNSVKREYTVGEMVNLMSVDAQRFMDVSPFINLLWSAPLQVILAIYFLWQILGPSALAGVAVIVLLIPLNGAVSMKMKTYQVQQMKFKDSRIKLMSEILNGIKVLKLYAWEPTFLEQVEGIRQGELQLLRKGAYLQAISTFIWVCTPFMVTLITLGVYVCVDKNNVLDAEKAFVSLSLFNILKIPLNLLPQLISGMTQTSVSLKRIQDFLNQDELDPQCVERKTISPGRAITIHNGTFSWSKDLPPTLHSINIQIPKGALVAVVGPVGCGKSSLVSALLGEMEKLEGAVSVKGSVAYVPQQAWIQNCTLQENVLFGQPMNPKRYQQALETCALLADLDVLPGGDQTEIGEKGINLSGGQRQRVSLARAVYSDANIFLLDDPLSAVDSHVAKHIFDQVIGPEGVLAGKTRVLVTHGISFLPQTDFIIVLADGQITEMGHYSELLQHDGSFANFLRNYAPDENQEANEGVLQHANEEVLLLEDTLSTHTDLTDTEPAIYEVRKQFMREMSSLSSEGEGQNRPVLKRYTSSLEKEVPATQTKETGALIKEEIAETGNVKLSVYWDYAKSVGLCTTLFICLLYAGQNAVAIGANVWLSAWTNDVEEHGQQNNTSVRLGVYATLGILQGLLVMLSAFTMVVGAIQAARLLHTALLHNQIRAPQSFFDTTPSGRILNRFSKDIYVIHEVLAPTILMLFNSFYTSISTIVVIVASTPLFCVVVLPLAVFYGFVQRFYVATSRQLKRLESVSRSPIFSHFSETVTGTSVIRAYGRVQDFKVLSDAKVDSNQKTTYPYIASNRWLGVHVEFVGNCVVLFSALFAVIGRNSLNPGLVGLSVSYALQVTLSLNWMIRTLSDLESNIIAVERVKEYSKTETEAPWVLESNRAPEGWPRSGVVEFRNYSVRYRPGLELVLKNLTLHVQGGEKVGIVGRTGAGKSSMTLCLFRILEAAEGEIFIDGLNVAHIGLHDLRSQLTIIPQDPILFSGTLRMNLDPFGRYSDEDIWRTLELSHLSAFVSSQPTGLDFQCSEGGDNLSVGQRQLVCLARALLRKSRVLVLDEATAAIDLETDDLIQGTIRTQFEDCTVLTIAHRLNTIMDYNRVLVLDKGVVAEFDSPVNLIAAGGIFYGMAKDAGLA
Km [5]: 4.5 µM
Km [6]: 11.7 µM
